Holding throughout (assay): inhibition of tumour cell growth, NCI panel, 48 h
For assay [1], the system named is NCI-H460 lung.
Assay [2] relates to PC-3 prostate.
Assay [3] concerns MALME-3M melanoma.
In assay [4] the test system is NCI/ADR-RES ovarian.
Assay [5] concerns HS 578T breast.
Assay [6] concerns NCI-H226 lung.
Assay [7] concerns OVCAR-5 ovarian.
The test system of assay [8] is A498 renal.
Assay [9] has as its system T-47D breast.
The test system of assay [10] is RXF 393 renal.

Where “and” joins values, the source holds several entries; their conditions need not be identical. Equal entries are not always repeated.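 96-well plates; 48 h exposure; 5 concentrations. Endpoints by linear interpolation between flanking doses. Not reached: highest tested concentration assigned. GI50 = concentration required for 50% inhibition of growth. TGI marks complete inhibition of growth.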 A value given as a limit tells only on which side of the number the result lay.

For the molecule `O=C(Nc1ccc(Br)cc1F)c1cc(I)ccc1O`, the GI50 is 3.15 µM in [1]; 2.31 µM in [2]; 2.07 µM in [3]; 2.63 µM in assay [4]; 2.43 µM in [5]; 1.9 µM in assay [6]. Moreover, the GI50 in assay [7] is 3.17 µM; in assay [8], 1.32 µM; in assay [9], 1.92 µM; in [10] it was 2.55 µM. Further, the TGI in [1] was over 100 µM; in assay [2], 7.86 µM; in [3], 5.56 µM; in assay [4], 8.5 µM; in [5] it was 9.1 µM; in [6], 5.48 µM. The TGI in [7] is over 100 µM; in assay [8], 3.46 µM; in assay [9], 6.35 µM; in assay [10] it was 7.54 µM.

Turning to `CC(=O)N1CC(C)(C)c2c(C)c(O)c(C)c(C)c21`, the TGI in assay [1], in assay [2], in [4], in assay [5], in assay [6] and in assay [7] was over 100 µM throughout. The TGI in [8], in [9] and in assay [10] was over 100 µM in each case.

Turning to `O=C1C(Nc2ccc(Cl)cc2)=C(I)C(=O)c2ncccc21`, the GI50 in assay [2] is 1.12 µM; in assay [3] it was 0.875 µM; in [4], 2.01 µM; in [5], 2.13 µM; in assay [6] it was 1.52 µM; in assay [7] it was 1.58 µM. Moreover, the GI50 in [8] was 2.53 µM; in [9], 1 µM; in assay [10], 1.69 µM. In addition, the TGI in [2] was determined as 2.6 µM; in assay [3] it was 2.14 µM; in [4] it was 5.37 µM; in assay [5], 6.44 µM; in assay [6] it was 3.03 µM; in assay [7] it was 3 µM. The TGI in assay [8] was 13.4 µM; in [9] it was 3.54 µM; in assay [10] it was 3.12 µM.

Turning to `O=C1Nc2ccc(Br)cc2C1=Nc1cccnc1`, the TGI in assay [1] was over 100 µM; in assay [2] it was 41.2 µM; in assay [3] it was 46.8 µM; in assay [4] it was 87.1 µM; in assay [5], 60.5 µM; in [6], over 100 µM. The TGI in assay [7] is over 100 µM; in [8], over 100 µM; in assay [9], 52.7 µM; in [10], 29.1 µM.

Regarding `Cc1cccc(/C=N/NC(=S)N2CCCC2)n1`, the TGI in [1] was over 42 µM; in [3], 5.18 µM and 0.783 µM; in assay [4], 6.93 µM and 4.89 µM; in [5], over 100 µM; in assay [6] it was 7.73 µM and 0.83 µM; in assay [8] it was 5.61 µM. In addition, the TGI in [9] is 7.68 µM. Moreover, the GI50 in assay [2] is 0.581 µM; in [3], 1 µM; in [4], 0.319 µM; in assay [6] it was 0.266 µM; in [7], 2.41 µM; in assay [8] it was 7.22 µM. In addition, the GI50 in assay [9] is 0.267 µM; in assay [10], 2.09 µM.

For the molecule `Cc1ccccc1OCC(O)CN1CCN(c2ccc(Cl)cc2)CC1` (stereo not drawn), the GI50 in [1] is 16.7 µM; in assay [2], 11.7 µM; in assay [3], 15.2 µM; in assay [4], 14.8 µM; in [5], 21.4 µM; in [6] it was 18.6 µM. Besides, the GI50 is 17.4 µM in [7], 11.9 µM in assay [8], 18.5 µM in [9] and 20.2 µM in [10]. For the same molecule, the TGI is 34.1 µM in assay [1]; 25.9 µM in assay [2]; 31.2 µM in assay [3]; 29.5 µM in [4]; 68.7 µM in assay [5]; 35.9 µM in assay [6]. The TGI in [7] turned out to be 34.5 µM; in assay [8] it was 24.6 µM; in [9] it was 47.3 µM; in assay [10], 37.8 µM.

On to `O=C(Nc1cccc(-n2cc(-c3ccncc3)c(-c3ccc(Cl)c(O)c3)n2)c1)Nc1cc(C(F)(F)F)cc(C(F)(F)F)c1`, for which the GI50 is 0.391 µM in assay [1]; 0.261 µM in assay [2]; 0.831 µM in [3]; 1.23 µM in assay [4]; 1.2 µM in assay [5]; 1.2 µM in assay [6]. Further, the GI50 in assay [7] is 0.846 µM; in assay [8], 0.595 µM; in assay [9] it was 1.55 µM; in [10] it was 0.935 µM. The TGI in [1] was determined as 1.36 µM; in [2], 2.24 µM; in [3] it was 2.24 µM; in [4] it was 5.67 µM; in [5] it was 4.01 µM; in assay [6], 5.14 µM. Also, the TGI in assay [7] turned out to be 1.88 µM; in assay [8], 2.3 µM; in assay [9] it was 8.93 µM; in assay [10], 2.21 µM.

Regarding `C=C(C(N)=O)c1ccc([N+](=O)[O-])o1`, the TGI in assay [1] was 59 µM; in assay [2] it was 76 µM; in [3], 5.51 µM; in assay [4], over 100 µM; in assay [5], 77.1 µM; in assay [6], 49.6 µM. Also, the TGI amounted to 35.2 µM in [7], 25.7 µM in assay [8], 48 µM in [9] and 9.64 µM in assay [10].

Take `NCCCC[C@@H]1NC(=O)[C@H]2CCCN2C(=O)[C@H](Cc2ccccc2)CNC(=O)[C@H](Cc2ccccc2)NC1=O`: the GI50 in [1], in assay [2], in assay [3], in assay [4], in assay [5] and in assay [6] was over 37.5 µM in each case. Moreover, the GI50 in assay [7], in assay [8], in assay [9] and in assay [10] was over 37.5 µM in each case. Besides, the TGI in assay [1], in [2], in assay [3], in [4], in assay [5] and in assay [6] was over 37.5 µM throughout. For the same molecule, the TGI in assay [7], in [8], in assay [9] and in assay [10] was over 37.5 µM throughout.

`COc1ccc(CCN2CC=Cn3c2nc2ccccc2c3=O)cc1`: the GI50 in assay [1] was 0.0358 µM; in assay [2] it was 0.0308 µM; in [4], 0.0179 µM; in assay [5], 0.0329 µM; in [6], 0.101 µM; in assay [7] it was 0.217 µM. For the same molecule, the GI50 in assay [8] was 0.0203 µM; in assay [9] it was 16 µM; in assay [10], 0.0309 µM. Also, the TGI is 14.4 µM in [1]; over 100 µM in [2]; 0.77 µM in [4]; 77.4 µM in [5]; over 85.8 µM in [6]; over 100 µM in assay [7]. Besides, the figures for the TGI in assay [8], in [9] and in assay [10] were 0.0851 µM, over 100 µM and over 100 µM, respectively.

As for `O=C1c2cc3c(cc2[C@@H]2[C@H]1c1ccc([N+](=O)[O-])cc1C(=O)N2CCCBr)OCO3`, the GI50 in [2] was under 0.01 µM; in assay [3] it was under 0.0189 µM; in assay [4], under 0.01 µM; in assay [5] it was 0.381 µM; in [6], under 0.01 µM; in assay [7], under 0.0158 µM. The GI50 in assay [8], in assay [9] and in assay [10] was under 0.01 µM in each case. The TGI in [2] was 0.184 µM; in assay [3], 0.168 µM; in assay [4], 0.0177 µM; in [5], 11.5 µM; in assay [6], under 0.01 µM; in assay [8], under 0.01 µM. The TGI in [9] was over 100 µM; in assay [10], under 0.01 µM.

`COc1ccc2c(CN3CCCC[C@H]3C(=O)O)cc3cc4c(cc3c2c1)OCO4`: the GI50 in assay [1] was 0.359 µM; in assay [2], 2.53 µM; in [4] it was 7.11 µM; in assay [5] it was 1.53 µM; in assay [6], 1.42 µM; in assay [7], 6.17 µM. The GI50 is 1.55 µM in [8], 2.05 µM in [9] and 0.414 µM in assay [10]. For the same molecule, the TGI was 2.23 µM in assay [1]; 7.14 µM in [2]; 65.7 µM in [4]; 4.4 µM in assay [5]; 3.13 µM in assay [6]; 44.5 µM in [7]. Further, the values for the TGI in assay [8], in assay [9] and in assay [10] were 3.06 µM, 8.04 µM and 2.03 µM, respectively.

For the molecule `C=C1C(O)C2C(=C(CC)C13CC3)C(=O)C(C)(C)C2OC` (stereo not drawn), the GI50 was 39.3 µM in assay [1]; 35.2 µM in assay [2]; over 100 µM in assay [3]; 92.7 µM in assay [4]; over 100 µM in assay [5]; over 100 µM in [7]. Moreover, the GI50 in [8], in assay [9] and in [10] was over 100 µM each time. The TGI in [1], in assay [2], in [3], in assay [4], in assay [5] and in assay [7] was over 100 µM each time. Besides, the TGI in assay [8], in [9] and in assay [10] was over 100 µM each time.

The values are drawn from PubChem BioAssay (NCI).
